Data on one compound can be found in paper PMC8886686 (Journal of Inorganic Biochemistry, 2022).

Assay [1] addresses SARS-CoV-2 WT-PLpro (Severe acute respiratory syndrome coronavirus 2, UniProt P0DTD1). The assay can be described thus: Zn2+ content determination by ICP-MS, PLpro. Format: binding.
For assay [2], the target named is T1, SARS-CoV-2 3CLpro (Severe acute respiratory syndrome coronavirus 2, UniProt P0DTD1). Type of assay: biochemical.
For assay [3], the target named is T2, SARS-CoV-2 PLpro (Severe acute respiratory syndrome coronavirus 2, UniProt P0DTD1). The assay can be described thus: PLpro deubiquitination assay with ubiquitin-AMC substrate. Format: biochemical.
Assay [4] concerns the target T2, SARS-CoV-2 PLpro. Format: biochemical. The settings on record: 1 μM PLpro.
The target in assay [5] is T1, SARS-CoV-2 3CLpro. Format: binding. The settings on record: 50 μM metal ion.
The target in assay [6] is T2, SARS-CoV-2 PLpro. Format: binding. The settings on record: 50 μM metal ion.
The target of assay [7] is T1, SARS-CoV-2 3CLpro. Type of assay: binding.
The target in assay [8] is SARS-CoV-2 WT-3CLpro (Severe acute respiratory syndrome coronavirus 2, UniProt P0DTD1). The assay can be described thus: Zn2+ content determination by ICP-MS, 3CLpro. Type of assay: binding.
The target in assay [9] is T2, SARS-CoV-2 PLpro. Type of assay: binding.

`O=C([O-])[C@H](O)[C@@H](O)[C@H](O)[C@H](O)CO.O=C([O-])[C@H](O)[C@@H](O)[C@H](O)[C@H](O)CO.[Zn+2]` [Zn^2+, zinc gluconate]: in assay [1], the “Zn2+ binding capacity per PLpro monomer (ICP-MS)” value was found to be 1.90 ± 0.01 eq. In addition, in assay [2] (50 μM metal ion, 0.5 μM 3CLpro), the “inhibition of the proteolytic activity of 3CLpro” value worked out at 97.6%. The IC50 in assay [2] (read-out: IC50, 3CLpro activity, 0.5 μM WT-3CLpro, 10 μM substrate) is 540 ± 40 nM; in assay [4] (read-out: IC50, PLpro activity, 20 μM peptide substrate), 530 ± 40 nM. The “inhibition of PLpro deubiquitination activity” value in assay [3] is 95.7%. The “inhibition of the proteolytic activity of PLpro” value in assay [4] (50 μM metal ion) came out at 98%. In addition, the “effect on melting temperature of 3CLpro” value in assay [5] was “most potent metal ion to decrease the melting temperatures”. For the same compound, in assay [6], the “effect on melting temperature of PLpro” value is listed as “most potent metal ion to decrease the melting temperatures”. The “Zn2+ bound to 3CLpro monomer (ITC stoichiometry)” value in assay [7] came to 0.79 ± 0.01 eq. The Kd in [7] (read-out: dissociation constant (KD), 3CLpro (monomer)) was determined as 4080 ± 660 nM; in assay [9] (read-out: dissociation constant (KD), PLpro), 2170 ± 360 nM. Moreover, the “Zn2+ binding capacity of 3CLpro monomer (ICP-MS)” value in assay [8] amounted to 1.24 ± 0.01 eq. Also, in assay [9], the “Zn2+ bound to PLpro (ITC stoichiometry)” value is reported as 1.23 ± 0.01 eq.

Usually IC50 stands for the point on the concentration scale where inhibition reaches its midpoint. The Kd is the equilibrium constant for the complex coming apart.
